Laboratory results published in paper PMC5062169, “Structural basis for ligand recognition by a Cache chemosensory domain that mediates carboxylate sensing in Pseudomonas syringae” (Scientific Reports, 2016).
pKd: −log10 of the molar value. Where two headings read alike, the source gives them in different places. Peptide text beside a SMILES is read from it.

Experiments:
[1] = target: T1, PscD (PscD-SD, Cache sensor domain of chemoreceptor PscD) (Pseudomonas syringae, UniProt A0ABY1U976); conditions: Biolog plate compound, exact concentration unknown; binder
T1 construct: gene CFBP3846_03581; sensor domain, Gln31-Trp188, N-terminal His6 tag
T1 sequence (A0ABY1U976 31-188): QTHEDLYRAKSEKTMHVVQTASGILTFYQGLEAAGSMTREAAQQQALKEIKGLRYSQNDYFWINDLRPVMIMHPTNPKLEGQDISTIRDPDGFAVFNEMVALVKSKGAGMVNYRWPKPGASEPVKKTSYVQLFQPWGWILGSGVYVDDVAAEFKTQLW
Source text: (§1) We used high-throughput fluorescence thermal shift (FTS) assays (as described previously[16]) to screen for potential ligands of PscD-SD. FTS assays are based on the principle that ligands stabilise proteins upon binding, causing an increase in the melting temperature of the protein[22][23]. Binding can therefore be rapidly screened by measuring the difference in the temperature midpoint of unfolding (ΔTm) of a protein in the presence and absence of potential ligands. In our FTS assays, the Tm was measured by monitoring an increase in fluorescence of a dye with affinity for hydrophobic parts of the protein (i.e. SYPRO Orange), which are exposed as the protein unfolds. We screened the recombinant PscD-SD protein in FTS assays against the compounds in Biolog Phenotype Microarray (PM) plates 1 and 2 (Supplementary Tables 1 and 2). Each plate contains 95 different compounds (e.g., organic acids, sugars) and a water (no ligand) control. For use in FTS assays, the compounds were resuspended directly in water, thus generating a library of biologically relevant potential ligands. […] Fluorescent thermal shift (FTS) assays were conducted as reported previously. PscD-SD was screened for potential ligands against Biolog Phenotype Microarray (PM) plates 1 and 2 (Biolog, Hayward, CA, USA). For initial qualitative, high-throughput screening, ligands were prepared by dissolving Biolog PM compounds in 50 μL of water (each) to obtain a final concentration of approximately 10–20 mM (the exact concentrations vary from well-to-well). Screens were set up in Lightcycler 480 multiwell plates (Roche Diagnostics, Auckland, NZ) with 20 μM protein, a 5x concentration of SYPRO orange (Life Technologies, Carlsbad, CA, USA) and 5 μL of the test compound (i.e. resuspended Biolog ligands) added to each well. The plate was covered with Lightcycler 480 sealing film (Roche Diagnostics) and fluorescence signal was monitored as the temperature was increased from 20 °C to 80 °C at a rate of 1.2 °C.min^−1 in a Lightcycler 480 (Roche Diagnostics). Initial hits were further tested using known concentrations (0, 1, 2, 5 and 10 mM) of each potential ligand to confirm binding. The ligands were prepared as 10x stocks, 2 μL were added to each well, and the experiments were conducted as described above. The first derivative values (−dF/dt) from the raw fluorescence data were used to determine the melting temperature (Tm). Three biological replicates (from independently cultured and purified batches of protein) were performed for each plate screened.

[2] = target: T2, PscD (PscD-SD, Cache sensor domain of chemoreceptor PscD) (Pseudomonas syringae, UniProt A0ABY1U976); assay: ITC; thermal shift; format: binding
T2 construct: gene CFBP3846_03581; sensor domain, Gln31-Trp188, N-terminal His6 tag

[3] = target: T2, PscD (PscD-SD, Cache sensor domain of chemoreceptor PscD); assay: ITC; X-ray crystal structure (propionate soak); thermal shift; format: binding
[4] = target: T1, PscD (PscD-SD, Cache sensor domain of chemoreceptor PscD); parameters: fluorescence thermal shift (SYPRO Orange) screen of Biolog PM1/PM2 compounds, delta Tm; conditions: Biolog plate compound, exact concentration unknown; binder
Source text: as §1

SMILES	Δ Tm [1]	further results
OC[C@H]1O[C@@H](O[C@@H]2[C@@H](CO)OC(O)(CO)[C@H]2O)[C@H](O)[C@@H](O)[C@H]1O (mixture of isomers) [Lactulose]	0.20 ± 0.03 °C	
CC(O)CO (centres unmarked) [1,2-Propanediol]	0.12 ± 0.05 °C	
NCCO [2-Aminoethanol]	0.15 ± 0.05 °C	
Nc1ncnc2c1ncn2[C@H]1C[C@H](O)[C@@H](CO)O1 [2-Deoxy-Adenosine]	0.17 ± 0.05 °C	
CC(=O)CC(=O)O [Acetoacetic Acid]	0.63 ± 0.05 °C	
Nc1ncnc2c1ncn2[C@@H]1O[C@H](CO)[C@@H](O)[C@H]1O [Adenosine]	0.15 ± 0.05 °C	
OC[C@@H](O)[C@@H](O)[C@@H](O)CO [Adonitol]	0.12 ± 0.03 °C	
O=C(O)CC(Br)C(=O)O (centres unmarked) [Bromo Succinic Acid]	0.05 ± 0.10 °C	
C[C@@H](N)C(=O)O [D-Alanine]	0.12 ± 0.03 °C	
O=C(CO)[C@@H](O)[C@H](O)[C@H](O)CO [D-Fructose]	0.17 ± 0.05 °C	
O=C[C@H](O)[C@@H](O)[C@@H](O)[C@H](O)CO [D-Galactose]	0.17 ± 0.02 °C	
O=C(O)[C@H](O)[C@@H](O)[C@H](O)[C@H](O)CO [D-Gluconic Acid]	0.17 ± 0.02 °C	
N[C@@H](C(=O)O)[C@@H](O)[C@H](O)[C@H](O)CO [D-Glucosaminic Acid]	0.10 ± 0.05 °C	
O=P(O)(O)O[C@H]1O[C@H](CO)[C@@H](O)[C@H](O)[C@H]1O [D-Glucose-1-Phosphate]	0.10 ± 0.05 °C	
O=C(O)C[C@@H](O)C(=O)O [D-Malic Acid]	0.17 ± 0.05 °C	
OC[C@@H](O)[C@@H](O)[C@H](O)[C@H](O)CO [D-Mannitol]	0.17 ±0.05 °C	
OC[C@H]1OC(O)[C@@H](O)[C@@H](O)[C@@H]1O (stereo partly drawn) [D-Mannose]	0.17 ± 0.05 °C	
O[C@@H]1[C@H](O)[C@H](O)CO[C@H]1O [D-Ribose]	0.12 ±0.05 °C	
N[C@H](CO)C(=O)O [D-Serine]	0.00 ± 0.00 °C	
OC[C@@H](O)[C@@H](O)[C@H](O)[C@@H](O)CO [D-Sorbitol]	0.05 ± 0.07 °C	
O=CO [Formic Acid]	0.20 ±0.03 °C	
NC(=O)[C@H]1O[C@@H](O)[C@H](O)[C@@H](O)[C@@H]1O [Glucuronamide]	0.17 ± 0.06 °C	
OCC(O)CO [Glycerol]	0.10 ± 0.05 °C	

SMILES	Δ Tm [1]	further results
NCC(=O)N[C@@H](CC(=O)O)C(=O)O [Glycyl-L-Aspartic Acid] (H-Gly-Asp-OH)	0.00 ± 0.00 °C	
NCC(=O)N[C@@H](CCC(=O)O)C(=O)O [Glycyl-L-Glutamic Acid] (H-Gly-Glu-OH)	0.00 ± 0.00 °C	
NCC(=O)N1CCC[C@H]1C(=O)O [Glycyl-L-Proline] (H-Gly-Pro-OH)	0.00 ± 0.00 °C	
O=c1[nH]cnc2c1ncn2[C@@H]1O[C@H](CO)[C@@H](O)[C@H]1O [Inosine]	0.15 ± 0.05 °C	
C[C@H](N)C(=O)O [L-Alanine]	0.10 ± 0.03 °C	
C[C@H](N)C(=O)NCC(=O)O [L-Alanyl-Glycine] (H-Ala-Gly-OH)	0.07 ± 0.08 °C	
O[C@@H]1[C@@H](O)[C@@H](O)CO[C@H]1O [L-Arabinose]	0.05 ± 0.07 °C	
NC(=O)C[C@H](N)C(=O)O [L-Asparagine]	0.00 ± 0.00 °C	
N[C@@H](CC(=O)O)C(=O)O [L-Aspartic Acid]	0.17 ± 0.05 °C	
C[C@H](O)[C@@H](O)[C@@H](O)[C@H](O)C=O [L-Fucose]	0.12 ± 0.05 °C	
NC(=O)CC[C@H](N)C(=O)O [L-Glutamine]	0.00 ± 0.00 °C	
C[C@H](O)C(=O)O [L-Lactic Acid]	0.12 ±0.03 °C	
O=C[C@H](O)[C@H](O)[C@@H](O)CO [L-Lyxose]	0.28 ± 0.05 °C	
O=C(O)[C@@H]1CCCN1 [L-Proline]	0.07 ± 0.04 °C	
N[C@@H](CO)C(=O)O [L-Serine]	0.10 ± 0.05 °C	
C[C@@H](O)[C@H](N)C(=O)O [L-Threonine]	0.12 ± 0.05 °C	
N[C@@H](CCC(=O)O)C(=O)O [L-glutamic acid]	0.15 ±0.05 °C	
OC[C@H]1O[C@H](O[C@H]2[C@H](O)[C@@H](O)[C@H](O)O[C@@H]2CO)[C@H](O)[C@@H](O)[C@@H]1O [Maltose]	0.20 ± 0.03 °C	
COC(=O)C(C)=O [Methyl Pyruvate]	0.48 ± 0.13 °C	
COC(=O)CCC(=O)O [Mono Methyl Succinate]	0.12 ± 0.03 °C	
O=C(O)[C@@H](O)[C@H](O)[C@H](O)[C@@H](O)C(=O)O [Mucic Acid]	0.07 ± 0.04 °C	
CC(=O)N[C@@H]1[C@@H](O)[C@H](O)[C@@H](CO)O[C@@H]1O [N-Acetyl-D-Glucosamine]	0.10 ± 0.05 °C	
CC(=O)N[C@H]1[C@@H](O)[C@H](O)[C@@H](CO)O[C@H]1O [N-Acetyl-β-D-Mannosamine]	0.07 ± 0.04 °C	

SMILES	Δ Tm [1]	further results
NCCc1ccccc1 [Phenylethyl-amine]	0.17 ± 0.05 °C	
O=C(O)CCC(=O)O [Succinic Acid]	0.10 ± 0.03 °C	
OC[C@H]1O[C@@](CO)(O[C@H]2O[C@H](CO)[C@@H](O)[C@H](O)[C@H]2O)[C@@H](O)[C@@H]1O [Sucrose]	0.17 ± 0.05 °C	
Cc1cn([C@H]2C[C@H](O)[C@@H](CO)O2)c(=O)[nH]c1=O [Thymidine]	0.15 ± 0.05 °C	
O=C(O)CC(CC(=O)O)C(=O)O [Tricarballylic Acid]	-0.03 ± 0.05 °C	
NCCc1ccc(O)cc1 [Tyramine]	0.12 ± 0.03 °C	
O=c1ccn([C@@H]2O[C@H](CO)[C@@H](O)[C@H]2O)c(=O)[nH]1 [Uridine]	0.15 ± 0.05 °C	
CC(=O)O [acetate]		pKd ([2]; read-out: Kd): 4.51
O=C(O)CO [glycolate]	1.13 ± 0.00 °C	pKd [2]: 4.64
O=C(O)Cc1cccc(O)c1 [m-Hydroxy Phenyl Acetic Acid]	0.10 ± 0.05 °C	
O=C(O)Cc1ccc(O)cc1 [p-Hydroxy Phenyl Acetic Acid]	0.15 ± 0.04 °C	
CCC(=O)O [propionate]	2.66 ± 0.11 °C	pKd [3]: 4.00
CC(=O)C(=O)O [pyruvate]	1.01 ± 0.03 °C	pKd ([2]; read-out: Kd): 3.45
OC[C@H]1O[C@H](O)[C@H](O)[C@@H](O)[C@@H]1O [α-D-Glucose]	0.12 ± 0.03 °C	
OC[C@H]1O[C@@H](O[C@H]2[C@H](O)[C@@H](O)[C@@H](O)O[C@@H]2CO)[C@H](O)[C@@H](O)[C@H]1O [α-D-Lactose]	0.12 ± 0.03 °C	
CCC(O)C(=O)O (stereo not drawn) [α-Hydroxy Butyric Acid]	0.17 ± 0.05 °C	
CCC(=O)C(=O)O [α-Keto-Butyric Acid]	0.17 ± 0.05 °C	
O=C(O)CCC(=O)C(=O)O [α-Keto-Glutaric Acid]	0.17 ± 0.02 °C	
CO[C@@H]1O[C@H](CO)[C@@H](O)[C@H](O)[C@H]1O [β-Methyl-D-Glucoside]	0.07 ± 0.04 °C	
OC[C@H]1O[C@@H]2O[C@H]3[C@H](O)[C@@H](O)[C@@H](O[C@H]4[C@H](O)[C@@H](O)[C@@H](O[C@H]5[C@H](O)[C@@H](O)[C@@H](O[C@H]6[C@H](O)[C@@H](O)[C@@H](O[C@H]7[C@H](O)[C@@H](O)[C@@H](O[C@H]8[C@H](O)[C@@H](O)[C@@H](O[C@H]9[C@H](O)[C@@H](O)[C@@H](O[C@H]1[C@H](O)[C@H]2O)O[C@@H]9CO)O[C@@H]8CO)O[C@@H]7CO)O[C@@H]6CO)O[C@@H]5CO)O[C@@H]4CO)O[C@@H]3CO [γ-Cyclodextrin]		Δ Tm [4]: 0.28 ± 0.07 °C
O=C(O)CCCO [γ-Hydroxy Butyric Acid]		Δ Tm [4]: 0.08 ± 0.00 °C
NCCCC(=O)O [γ-amino butyric acid]		Δ Tm [4]: 0.05 ± 0.03 °C
